Assay results taken from US8962846B2, “Melanocortin receptor antagonist compounds, process for preparing them and use thereof in human medicine and cosmetics” (Galderma Research & Development, priority 2008, dated 2015).

Assays:
hMC4-R = target: T1, hMC4-R (Homo sapiens, UniProt P32245); experiment: Transactivation test: melanocortin receptors (CRE-Luc luciferase), hMC4-R; type: cell-based; conditions: HEK293 transfected with pCRE-Luc and receptor; 10-point dose response from 10 μM; antagonist behaviour tested in presence of 1 nM NDP-MSH; 6 hours incubation
T1 construct: expressed in transfected cells; host or cells: HEK293
T1 sequence (P32245 whole entry): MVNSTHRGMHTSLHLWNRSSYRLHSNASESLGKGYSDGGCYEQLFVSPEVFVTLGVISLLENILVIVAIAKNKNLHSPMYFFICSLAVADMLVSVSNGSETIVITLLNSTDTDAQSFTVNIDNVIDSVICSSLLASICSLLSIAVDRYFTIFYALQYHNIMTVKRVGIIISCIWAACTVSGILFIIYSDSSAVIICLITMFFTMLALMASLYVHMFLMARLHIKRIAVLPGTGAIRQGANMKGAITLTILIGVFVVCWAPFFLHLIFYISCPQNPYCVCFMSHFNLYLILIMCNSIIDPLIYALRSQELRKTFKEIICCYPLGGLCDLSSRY
Procedure: (§1) The lines HEK293 are transfected with vectors pCRE-Luc and hMCl1R or hMCl4R. The cells are cultured at 37° C. and 5% CO2, in DMEM medium supplemented with 10% foetal calf serum.
(§2) In the presence of an activator (agonist), the melanocortin receptor will activate the cAMP pathway, which, via the vector CRE-Luc, will lead to the synthesis of luciferase. After addition of a lysis buffer containing a luminescent luciferase substrate, the luminescence proportional to the degree of activation or inhibition of receptor may be measured.
(§3) The products are dissolved at 10 mM in DMSO. They are tested as a response dose at 0.1% of DMSO final. The range comprising 10 points and a zero starts at 10 μM with four-fold dilutions. To test agonists, the products are tested alone. To determine the antagonist behaviour, the products of interest are tested in the presence of 1 nM NDP-MSH (reference agonist). The cells are inoculated at a rate of 5000 cells per well (384-well plate) in serum-free DMEM medium and incubated overnight at 37° C. and 5% CO2.
(§4) The products and the reference ligand (NDP-MSH) are added the following day and the plates are reincubated for 6 hours at 37° C. and 5% CO2. After adding the lysis buffer containing luciferin, the plates are read in a Top-Count machine. The results are normalized as percentage of activity using the 100% (cells+NDP-MSH at 10 nM) and 0% (cells alone) controls. An EC50 is calculated for each product using the XLFit software.

hMC1-R = target: T2, hMC1-R (Homo sapiens, UniProt Q01726); experiment: Transactivation test: melanocortin receptors (CRE-Luc luciferase), hMC1-R; type: cell-based; conditions: HEK293 transfected with pCRE-Luc and receptor; 10-point dose response from 10 μM; antagonist behaviour tested in presence of 1 nM NDP-MSH; 6 hours incubation
T2 construct: expressed in transfected cells; host or cells: HEK293
T2 sequence (Q01726 whole entry): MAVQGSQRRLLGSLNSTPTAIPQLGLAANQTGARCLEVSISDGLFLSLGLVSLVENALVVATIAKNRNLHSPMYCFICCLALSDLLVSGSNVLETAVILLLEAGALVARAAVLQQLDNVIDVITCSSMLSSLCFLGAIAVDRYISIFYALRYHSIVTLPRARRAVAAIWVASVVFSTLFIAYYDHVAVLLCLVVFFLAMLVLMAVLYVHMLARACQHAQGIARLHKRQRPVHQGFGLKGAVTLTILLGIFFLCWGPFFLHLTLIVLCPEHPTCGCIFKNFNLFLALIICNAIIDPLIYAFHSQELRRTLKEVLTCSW
Procedure: as §1, §2, §3, §4

Row | SMILES | EC50 (hMC4-R) [µM] | EC50 (hMC1-R) [µM]
1 | CCOC(=O)C1(C2CCCCC2)CCN(C(=O)[C@@H](Cc2ccc(OC)cc2)NC(=S)NCCCc2c[nH]cn2)CC1 [Example 7, Ethyl 4-cyclohexyl-1-[(R)-2-{3-[3-(1H-imidazol-4-yl)propyl]-thioureido}-3-(4-methoxyphenyl)propionyl]piperidine-4-carboxylate] | 0.05 | 1
2 | CCCC(=O)C1(C2CCCCC2)CCN(C(=O)[C@@H](Cc2ccc(OC)cc2)NC(=O)NCCc2c[nH]nn2)CC1 [Example 3, 1-[(R)-2-(4-Butyryl-4-cyclohexylpiperidin-1-yl)-1-(4-methoxybenzyl)-2-oxoethyl]-3-[2-(1H-[1,2,3]triazol-4-yl)ethyl]urea] | 0.05 | 
3 | COc1ccc(CC(NC(=O)NCCc2c[nH]cn2)C(=O)N2CCC(C(=O)NC(C)(C)C)(C3CCCCC3)CC2)cc1 (centres unmarked) [Example 1, 4-Cyclohexyl-1-[2-{3-[2-(1H-imidazol-4-yl)ethyl]ureido}-3-(4-methoxyphenyl)propionyl]piperidine-4-tert-butylcarbamoyl] | 0.06 | 
4 | CCCC(=O)C1(C2CCCCC2)CCN(C(=O)[C@@H](Cc2ccc(OC)cc2)NC(=O)NCCc2cn(C)cn2)CC1 [Example 2, 1-[(R)-2-(4-Butyryl-4-cyclohexylpiperidin-1-yl)-1-(4-methoxybenzyl)-2-oxoethyl]-3-[2-(1-methyl-1H-imidazol-4-yl)ethyl]urea] | 0.05 | 1

Results, then the compound that gave them:

Row | EC50 (hMC4-R) [µM] | EC50 (hMC1-R) [µM] | SMILES
5 | 0.01 |  | CCOC(=O)C1(C2CCCCC2)CCN(C(=O)[C@@H](Cc2ccc(Cl)c(Cl)c2)NC(=O)NCCc2cncn2C)CC1 [Example 6, Ethyl 4-cyclohexyl-1-((R)-3-(3,4-dichlorophenyl)-2-{3-[2-(3-methyl-3H-imidazol-4-yl)ethyl]ureido}propionyl)piperidine-4-carboxylate]
6 | 0.05 | 1 | CCOC(=O)C1(C2CCCCC2)CCN(C(=O)[C@@H](Cc2ccc(OC)cc2)NC(=S)NCCc2cn(C)cn2)CC1 [Example 8, Ethyl 4-cyclohexyl-1-((R)-3-(4-methoxyphenyl)-2-{3-[2-(1-methyl-1H-imidazol-4-yl)ethyl]thioureido}propionyl)piperidine-4-carboxylate]
7 | 0.02 | 0.5 | CCOC(=O)C1(C2CCCCC2)CCN(C(=O)[C@@H](Cc2ccc(OC)cc2)NC(=O)NCCCc2cnc[nH]2)CC1 [Example 4, Ethyl 4-cyclohexyl-1-[(R)-2-{3-[3-(3H-imidazol-4-yl)propyl]-ureido}-3-(4-methoxyphenyl)propionyl]piperidine-4-carboxylate]
8 | 0.002 | 1 | CCOC(=O)C1(C2CCCCC2)CCN(C(=O)[C@@H](Cc2ccc(Cl)cc2Cl)NC(=O)NCCc2c[nH]cn2)CC1 [Example 9, Ethyl 4-cyclohexyl-1-((R)-3-(2,4-dichlorophenyl)-2-{3-[2-(1H-imidazol-4-yl)ethy]ureido}propionyl)piperidine-4-carboxylate]
9 | 0.015 |  | CCOC(=O)C1(C2CCCCC2)CCN(C(=O)[C@@H](Cc2ccc(Cl)c(Cl)c2)NC(=O)NCCc2c[nH]cn2)CC1 [Example 5, Ethyl 4-cyclohexyl-1-((R)-3-(3,4-dichlorophenyl)-2-{3-[2-(1H-imidazol-4-yl)ethyl]ureido}propionyl)piperidine-4-carboxylate]
